Source: US12491185B2, “Inhibitors of mPTP” (NRG Therapeutics Ltd, priority 2023, dated 2025)

How the values were obtained:
[1] = test system: mPTP; assay: mPTP activity assay in isolated rat brain mitochondria; assay type: biochemical; conditions: fluorescence at 10 min timepoint
Protocol: MPTP activity was measured in brain mitochondria freshly isolated from female Sprague Dawley (250 to 300 gram) rats. Anaesthetised rats were perfused in-situ with −40 ml cold Dulbecco's Phosphate Buffered Saline (DPBS), then brains dissected and transferred into 30 ml Isolation Buffer (225 mM mannitol, 75 mM sucrose, 1 mM EGTA, adjusted to pH 7.4 with 1M NaOH). The brain was minced using tweezers and a scalpel into −5 mm pieces then transferred into a 50 ml Potterton Dounce homogenization tube on ice containing 10 ml ice-cold isolation buffer (as above with addition of Complete Protease inhibitor; 1 tablet per 50 ml buffer). Homogenisation was carried out using a teflon pestle at 1800 rpm. The slurry was centrifuged at 2000 g for 10 min at 4° C., then the supernatant centrifuged at 12,000 g for 9 min. The pellet was resuspended with a dounce homogeniser in isolation buffer as above but with the addition of 0.02% digitonin, centrifuged at 12,000 g for 11 min and finally resuspended in 5 ml modified isolation buffer (as above but with EGTA reduced to 0.1 mM).
Test compounds were prepared in 384 well polypropylene assay plates as described above for the liver mitochondria assay. A stock mitochondria/Fluo5N assay solution was prepared in 5.6 ml assay buffer (120 mM mannitol, 40 mM MOPS, 5 mM KH2PO4, 60 mM KCl, 10 mM pyruvate, 2 mM malate, 2 mM MgCl2, 20 μM ADP, 1.26 μM oligomycin A, adjusted to pH 7.4) supplemented with Fluo5N pentapotassium salt (2 μM) and 1 ml mitochondria suspension, then transferred (15 μl) into the assay plate containing test compounds and incubated for 10 min at RT. Assay plates were then transferred to a FLIPR Tetra plate reader (Molecular Devices). Dye fluorescence was then measured every 3 sec for a total of 10 min.

[2] = test system: mPTP; assay: mPTP activity (Ca2+ retention) assay in isolated rat liver mitochondria; assay type: biochemical; conditions: examples tested by different contract research organisations, believed comparable
In short: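 pIC50 was taken from Fluo5N fluorescence at 10 min after a 75 μM CaCl2 bolus, scaled between DMSO (0%) and 5 μM cyclosporin A (100%). Compounds, ten half-log concentrations from 30 μM to 1 nM final, sat 10 min at RT with fresh female Sprague Dawley rat liver mitochondria energized by succinate plus rotenone.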

| SMILES | mPTP Rat brain pIC50 [1] | mPTP Rat liver pIC50 [2] |
| --- | --- | --- |
| O=C(NCC1(Cc2ccccc2)CCCC1)c1cncc(=O)[nH]1 [Example 18, N-((1-benzylcyclopentyl)methyl)-6-oxo-1,6-dihydropyrazine-2-carboxamide] | 7.04 | 5.55 |
| Cc1ccccc1CC1(CNC(=O)c2nn(C)c(=O)[nH]2)CCC1 [Example 29, 1-methyl-N-((1-(2-methylbenzyl)cyclobutyl)methyl)-5-oxo-4,5-dihydro-1H-1,2,4-triazole-3-carboxamide] | 7.84 | 6.34 |
| O=C(NCC1(Cc2ccccc2)CCC1)c1cncc(O)c1 [Example 1, N-((1-benzylcyclobutyl)methyl)-5-hydroxynicotinamide] | 7.27 | 6.10 |
| CCC(C)(CNC(=O)c1nn(C)c(=O)[nH]1)Cc1ccccc1 (centres unmarked) [Example 44, N-(2-benzyl-2-methylbutyl)-1-methyl-5-oxo-4,5-dihydro-1H-1,2,4-triazole-3-carboxamide] | 7.41 | 6.23 |
| Cn1nc(C(=O)NCC2(Cc3cccc(Cl)c3)CCC2)[nH]c1=O [Example 79, N-((1-(3-Chlorobenzyl)cyclobutyl)methyl)-1-methyl-5-oxo-4,5-dihydro-1H-1,2,4-triazole-3-carboxamide] | 7.59 | 6.39 |
| O=C(NCC1(Cc2ccccc2)CCC1)c1nccc(=O)[nH]1 [Example 7, N-((1-benzylcyclobutyl)methyl)-6-oxo-1,6-dihydropyrimidine-2-carboxamide] | 7.42 | 5.97 |
| Cn1nc(C(=O)NC[C@@H](Cc2ccc(F)cc2F)CC(F)(F)F)[nH]c1=O [Example 246] | 5.85 | 4.56 |
| O=C(NCC1(Cc2c(F)cccc2F)CCC1)c1cncc(=O)[nH]1 [Example 15, N-((1-(2,6-difluorobenzyl)cyclobutyl)methyl)-6-oxo-1,6-dihydropyrazine-2-carboxamide] | 7.65 | 5.92 |
| O=C(NCC1(Cc2ccc(F)cc2F)CCC1)c1cncc(=O)[nH]1 [Example 16, N-((1-(2,4-difluorobenzyl)cyclobutyl)methyl)-6-oxo-1,6-dihydropyrazine-2-carboxamide] | 7.35 | – |
| O=C(NC[C@H](Cc1c(F)cc(F)cc1F)C1CC1)c1nccc(=O)[nH]1 [Example 183, (R)—N-(2-cyclopropyl-3-(2,4,6-trifluorophenyl)propyl)-6-oxo-1,6-dihydropyrimidine-2-carboxamide] | – | 5.4 |
| Cc1cccc(CC2(CNC(=O)c3nn(C)c(=O)[nH]3)CCC2)c1 [Example 89, 1-Methyl-N-((1-(3-methylbenzyl)cyclobutyl)methyl)-5-oxo-4,5-dihydro-1H-1,2,4-triazole-3-carboxamide] | – | 6.05 |
| O=C(NCC1(Cc2ccc(F)cc2F)CC(F)C1)c1nccc(=O)[nH]1 (centres unmarked) [Example 215] | – | 6.34 |
| Cn1nc(C(=O)NCC(Cc2ccc(F)cc2F)C2CCCC2)[nH]c1=O (centres unmarked) [Example 103, N-(2-cyclopentyl-3-(2,4-difluorophenyl)propyl)-1-methyl-5-oxo-4,5-dihydro-1H-1,2,4-triazole-3-carboxamide] | – | <4.57 |
| O=C(NCC1(Cc2ccc(F)cc2F)CCC1)c1nncc(=O)[nH]1 [Example 198, N-((1-(2,4-difluorobenzyl)cyclobutyl)methyl)-5-oxo-4,5-dihydro-1,2,4-triazine-3-carboxamide] | – | 5.95 |
| Cn1oc(C(=O)NCC2(Cc3ccc(F)cc3F)CCC2)cc1=O [Example 126] | – | <4.57 |
| CSc1ccc(CC2(CNC(=O)c3nn(C)c(=O)[nH]3)CCC2)cc1 [Example 106, 1-methyl-N-((1-(4-(methylthio)benzyl)cyclobutyl)methyl)-5-oxo-4,5-dihydro-1H-1,2,4-triazole-3-carboxamide] | – | <4.57 |
| Cn1nc(C(=O)NCC2(Cc3ccc(F)cc3OC(F)(F)F)CCC2)[nH]c1=O [Example 102, N-((1-(4-fluoro-2-(trifluoromethoxy)benzyl)cyclobutyl)methyl)-1-methyl-5-oxo-4,5-dihydro-1H-1,2,4-triazole-3-carboxamide] | – | <4.57 |
| Cn1nc(C(=O)NC[C@H](Cc2ccc(F)c(F)c2)C2CC2)[nH]c1=S [Example 118, (R)-N-(2-cyclopropyl-3-(3,4-difluorophenyl)propyl)-1-methyl-5-thioxo-4,5-dihydro-1H-1,2,4-triazole-3-carboxamide] | – | 6.26 |
| O=C(NCC1(Cc2ccc(F)cc2F)CCC1)c1cc(O)ccn1 [Example 128] | – | 6.01 |
| CCC(CNC(=O)c1nn(C)c(=O)[nH]1)Cc1ccc2cnccc2c1 (centres unmarked) [Example 144] | – | <4.57 |

Now from value to compound:

| mPTP Rat brain pIC50 [1] | mPTP Rat liver pIC50 [2] | SMILES |
| --- | --- | --- |
| 6.51 | 5.39 | CC(CNC(=O)c1cc(O)no1)(Cc1ccc(F)cc1F)C1CC1 (single isomer, unassigned) [Example 270] |
| 7.74 | 6.29 | O=C(NCC1(Cc2cc(F)ccc2F)CCC1)c1cncc(=O)[nH]1 [Example 174] |
| 7.32 | 6.55 | Cc1cnc(C(=O)NCC(C)(Cc2ccc(F)cc2)C2CC2)[nH]c1=O (single isomer, unassigned) [Example 267] |
| 6.25 | 5.43 | CC(C)(CNC(=O)c1ccc2oc(=O)[nH]c2c1)Cc1ccccc1 [Example 57] |
| 7.61 | 7.08 | Cn1nc(C(=O)NC[C@H](Cc2ccc(F)c(F)c2)C2CC2)[nH]c1=O [Example 150] |
| 7.29 | 6.45 | CCC(F)(CNC(=O)c1nccc(=O)[nH]1)Cc1ccc(F)cc1F (single isomer, unassigned) [Example 255, N-(2-(2,4-difluorobenzyl)-2-fluorobutyl)-6-oxo-1,6-dihydropyrimidine-2-carboxamide] |
| – | <4.57 | CCc1ccc(CC2(CNC(=O)c3nn(C)c(=O)[nH]3)CCC2)cc1 [Example 111, N-((1-(4-ethylbenzyl)cyclobutyl)methyl)-1-methyl-5-oxo-4,5-dihydro-1H-1,2,4-triazole-3-carboxamide] |
| – | 5.65 | Cn1nc(C(=O)NCC2(Cc3ccccc3C(F)F)CCC2)[nH]c1=O [Example 76, N-((1-(2-(Difluoromethyl)benzyl)cyclobutyl)methyl)-1-methyl-5-oxo-4,5-dihydro-1H-1,2,4-triazole-3-carboxamide] |
| – | 4.99 | COc1ccccc1CC1(CNC(=O)c2nn(C)c(=O)[nH]2)CCC1 [Example 61, N-((1-(2-methoxybenzyl)cyclobutyl)methyl)-1-methyl-5-oxo-4,5-dihydro-1H-1,2,4-triazole-3-carboxamide] |
| – | 5.72 | O=C(NC[C@H](Cc1ccc(F)cc1F)C1CC1)c1ncc(F)c(=O)[nH]1 [Example 192] |
| – | <4.52 | O=C1COCC(C(=O)NCC2(Cc3ccccc3)CCC2)N1 (centres unmarked) [Example 65, N-((1-benzylcyclobutyl)methyl)-5-oxomorpholine-3-carboxamide] |
| – | <4.57 | O=C(NCC1(Cc2ccc(F)cc2F)CCC1)c1nnn[nH]1 [Example 140] |
| – | 5.41 | CCC(CNC(=O)c1nn(C)c(=O)[nH]1)Cc1ccc2c(c1)CCO2 (centres unmarked) [Example 172] |
